{"source": "patent US11667701B2", "about": "“Anti-PfRH5 antibodies and antigen-binding fragments thereof” (priority 2018, dated 2023)", "tested_on": "Plasmodium falciparum strain 3D7", "assay": "Growth inhibition assay with or without chloroquine, strain 3D7 (Example 3)", "format": "cell-based", "description": "Each P. falciparum strain (BEI Resources) was first synchronized with 5% D-sorbitol following standard protocols at 3-5% hematocrit and 1-2% parasitaemia 20-24 hours prior to the start of the assay. Infected human erythrocytes were prepared at a starting parasitaemia of 0.4-0.7% and 2% hematocrit. Infected erythrocytes were combined with PfRH5-specific or control antibodies starting at a concentration of 666.67 nM with 1:5 serial dilution for each IgG1 antibody and chloroquine at one of two concentrations, 4.91 or 6.58 nM. […] The parasites were grown for 40-48 h until the schizont stage was reached (one complete life cycle). Parasite growth was stopped with three washes of cold PBS. Final parasitaemia was determined by measuring the parasite lactate dehydrogenase (LDH) activity. Percent growth inhibition was expressed relative to uninfected erythrocytes.", "data": [{"smiles": "CCN(CC)CCCC(C)Nc1ccnc2cc(Cl)ccc12", "note": "(stereo not shown) [chloroquine, reference compound]", "values": [{"measurement": "1025 of chloroquine with the susceptible 3D7 strain", "result": 4.91, "unit": "nM"}]}]}
